# Literature values, collected in US7288270B1, “Therapeutic composition for the prevention and treatment of mucositis and mucosal disorders” (priority 2002, dated 2007).
# What was measured:
# Herpes virus = conditions: in test tubes
# mucositis [1] = conditions: subsequent randomized and controlled studies
# eczema = conditions: ointment, topical
# Staphylococcus aureus = conditions: in the solvent dimethyl sulfoxide; one range given for three species
# Enterococcus faecalis = conditions: in the solvent dimethyl sulfoxide; one range given for three species
# Pseudomonas aeruginosa = conditions: in the solvent dimethyl sulfoxide; one range given for three species
# [2] = tested on: dermatophytes (Trichophyton mentagrophytes, Trichophyton tonsurans, Trichophyton rubrum, Epidermophyton floccosum, Microsporum gypseum)
# HSV-1 = conditions: dose-dependent, reversible manner
# HSV-2 = conditions: dose-dependent, reversible manner
# [3] = tested on: Gram negative bacteria that tend to colonize the oral cavity; conditions: patients undergoing radiation therapy
# mucositis [4] = conditions: human, in vivo
structure (smiles),measurement,setting,value
CC1(C)[C@@H](O[C@H]2O[C@H](C(=O)O)[C@@H](O)[C@H](O)[C@H]2O[C@@H]2O[C@H](C(=O)O)[C@@H](O)[C@H](O)[C@H]2O)CC[C@]2(C)[C@H]3C(=O)C=C4[C@@H]5C[C@@](C)(C(=O)O)CC[C@]5(C)CC[C@@]4(C)[C@]3(C)CC[C@@H]12 [glycyrrhizic acid],inhibition of herpes virus,Herpes virus,inhibited
CC(=O)CCCCn1c(=O)c2c(ncn2C)n(C)c1=O [pentoxifylline],benefit in mucositis,mucositis [1],failed to demonstrate any benefit
CC1(C)[C@@H](O)CC[C@]2(C)[C@H]3C(=O)C=C4[C@@H]5C[C@@](C)(C(=O)O)CC[C@]5(C)CC[C@@]4(C)[C@]3(C)CC[C@@H]12 [glycyrrhetinic acid],improvement of eczema compared with hydrocortisone,eczema,as effective as hydrocortisone
"Oc1ccc(/C=C/c2cc(O)cc(O)c2)cc1 [resveratrol, 3,5,4′-trihdyroxystilbene]",concentration at which growth was inhibited,Staphylococcus aureus,171 to 342 µg/mL
same,concentration at which growth was inhibited,Enterococcus faecalis,171 to 342 µg/mL
same,concentration at which growth was inhibited,Pseudomonas aeruginosa,171 to 342 µg/mL
same,concentration at which growth of dermatophytes was inhibited,[2],25 to 50 µg/mL
same,inhibition of HSV-1 replication,HSV-1,inhibit
same,inhibition of HSV-2 replication,HSV-2,inhibit
"[H]/N=C(\N/C(=N/[H])NCCCCCCNC(=N)NC(=N)Nc1ccc(Cl)cc1)Nc1ccc(Cl)cc1 [chlorhexidine, Chlorhexidine]",effectiveness against Gram negative bacteria of the oral cavity,[3],relatively ineffective
same,incidence of mucositis,mucositis [4],higher incidence of mucositis
